The results in this text go back to US12162890B2 (Novartis AG, priority 2015, dated 2024).

The structures appear in SMILES notation.

This assay deals with HEK293 cells with stable expression of the GRIN1 gene and tetracycline-inducible expression of the GRIN2B gene (NMDA receptor, NR2B) (Homo sapiens, UniProt Q13224). Briefly: Fluo-8 Ca2+ flux assay: reversal of Ro 25-6981-mediated suppression of the Ca2+ response to co-agonist (glutamate/glycine). Further: test concentration or dose not given here. Type of assay: cell-based. As to conditions: reversal of the Ro 25-6981 suppression of the Ca2+ response to co-agonist (glutamate/glycine).
Sequence of HEK293 cells with stable expression of the GRIN1 gene and tetracycline-inducible expression of the GRIN2B gene (NMDA receptor, NR2B) (Q13224 27-1484, other chains not shown): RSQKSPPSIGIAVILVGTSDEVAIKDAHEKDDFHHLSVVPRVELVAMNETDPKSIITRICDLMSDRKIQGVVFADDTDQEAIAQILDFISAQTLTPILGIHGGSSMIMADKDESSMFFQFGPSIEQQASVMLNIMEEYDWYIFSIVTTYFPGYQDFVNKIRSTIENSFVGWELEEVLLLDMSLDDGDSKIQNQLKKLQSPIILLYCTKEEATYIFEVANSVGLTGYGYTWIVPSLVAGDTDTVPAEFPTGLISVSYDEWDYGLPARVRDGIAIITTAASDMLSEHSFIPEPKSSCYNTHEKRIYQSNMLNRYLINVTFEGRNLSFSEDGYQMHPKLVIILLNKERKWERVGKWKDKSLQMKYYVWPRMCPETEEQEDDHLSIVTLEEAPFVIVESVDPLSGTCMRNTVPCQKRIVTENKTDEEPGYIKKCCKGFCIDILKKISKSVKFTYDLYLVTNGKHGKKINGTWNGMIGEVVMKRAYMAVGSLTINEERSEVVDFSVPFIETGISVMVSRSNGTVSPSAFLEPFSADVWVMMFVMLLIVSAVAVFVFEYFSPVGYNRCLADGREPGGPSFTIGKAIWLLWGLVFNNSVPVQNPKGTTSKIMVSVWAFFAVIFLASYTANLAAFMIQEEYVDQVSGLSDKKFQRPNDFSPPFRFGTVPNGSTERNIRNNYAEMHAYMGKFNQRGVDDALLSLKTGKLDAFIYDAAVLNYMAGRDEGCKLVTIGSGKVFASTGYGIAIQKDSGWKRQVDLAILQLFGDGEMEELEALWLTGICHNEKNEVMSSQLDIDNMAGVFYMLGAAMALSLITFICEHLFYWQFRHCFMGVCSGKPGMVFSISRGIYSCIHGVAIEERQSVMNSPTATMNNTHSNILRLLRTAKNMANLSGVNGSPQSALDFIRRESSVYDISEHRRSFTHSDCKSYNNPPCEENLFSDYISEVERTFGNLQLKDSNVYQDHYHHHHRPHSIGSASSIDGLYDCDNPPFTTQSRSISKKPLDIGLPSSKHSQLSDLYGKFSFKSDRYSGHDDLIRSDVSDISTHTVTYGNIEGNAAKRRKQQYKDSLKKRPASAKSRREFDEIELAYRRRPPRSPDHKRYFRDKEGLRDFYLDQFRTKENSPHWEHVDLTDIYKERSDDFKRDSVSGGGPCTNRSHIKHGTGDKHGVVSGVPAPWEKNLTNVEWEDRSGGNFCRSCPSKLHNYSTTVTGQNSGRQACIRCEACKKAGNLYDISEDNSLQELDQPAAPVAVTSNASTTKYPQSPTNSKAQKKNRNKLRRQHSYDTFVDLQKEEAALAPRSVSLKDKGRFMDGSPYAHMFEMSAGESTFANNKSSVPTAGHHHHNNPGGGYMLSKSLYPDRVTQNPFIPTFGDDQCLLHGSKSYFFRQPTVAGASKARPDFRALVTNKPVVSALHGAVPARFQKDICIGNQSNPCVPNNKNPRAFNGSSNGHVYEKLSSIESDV
For the molecule `O=C(Cn1cc(-c2ccncc2)c2scc(-c3ccc(Cl)c(C(F)(F)F)c3)c2c1=O)N1CCCC1` [Example 103, 3-(4-chloro-3-(trifluoromethyl)phenyl)-5-(2-oxo-2-(pyrrolidin-1-yl)ethyl)-7-(pyridin-4-yl)thieno[3,2-c]pyridin-4(5H)-one], the “Response Recovered (%)” value is on record as 32%.

Consider `O=C(Cn1cc(-c2ccccc2)c2scc(-c3ccc(F)c(C(F)(F)F)c3)c2c1=O)N1CCCC1` [Example 104, 3-(4-fluoro-3-(trifluoromethyl)phenyl)-5-(2-oxo-2-(pyrrolidin-1-yl)ethyl)-7-phenylthieno[3,2-c]pyridin-4(5H)-one], for which the “Response Recovered (%)” value stood at 22%.

With `O=C(Cn1cc(-c2ccncc2)c2scc(-c3ccc(F)c(C(F)(F)F)c3)c2c1=O)N1CCCC1` [Example 105, 3-(4-fluoro-3-(trifluoromethyl)phenyl)-5-(2-oxo-2-(pyrrolidin-1-yl)ethyl)-7-(pyridin-4-yl)thieno[3,2-c]pyridin-4(5H)-one], the “Response Recovered (%)” value is recorded as 22%.

On to `Cc1cn(CC(=O)N2CCCC2)c(=O)c2c(-c3ccc(Cl)c(C(F)(F)F)c3)csc12` [Example 106, 3-(4-chloro-3-(trifluoromethyl)phenyl)-7-methyl-5-(2-oxo-2-(pyrrolidin-1-yl)ethyl)thieno[3,2-c]pyridin-4(5H)-one], for which the “Response Recovered (%)” value was determined as 76%.

Regarding `Cc1cn(CC(=O)N2CCCC2)c(=O)c2c(-c3ccc(F)c(C(F)(F)F)c3)csc12` [Example 107, 3-[4-fluoro-3-(trifluoromethyl)phenyl]-7-methyl-5-[2-oxo-2-(pyrrolidin-1-yl)ethyl]-4H,5H-thieno[3,2-c]pyridin-4-one], the “Response Recovered (%)” value is recorded as 63%.

In the case of `N=C(NO)c1cn(CC(=O)N2CCCC2)c(=O)c2c(-c3ccc(F)c(C(F)(F)F)c3)csc12` [Example 108, 3-(4-fluoro-3-(trifluoromethyl)phenyl)-N-hydroxy-4-oxo-5-(2-oxo-2-(pyrrolidin-1-yl)ethyl)-4,5-dihydrothieno[3,2-c]pyridine-7-carboximidamide], the “Response Recovered (%)” value worked out at 64%.

In the case of `O=C(Cn1cc(-c2ncon2)c2scc(-c3ccc(F)c(C(F)(F)F)c3)c2c1=O)N1CCCC1` [Example 109, 3-(4-fluoro-3-(trifluoromethyl)phenyl)-7-(1,2,4-oxadiazol-3-yl)-5-(2-oxo-2-(pyrrolidin-1-yl)ethyl)thieno[3,2-c]pyridin-4(5H)-one], the “Response Recovered (%)” value is on record as 14%.

As to `N=C(NO)c1cn(CC(=O)N2CCC(F)C2)c(=O)c2c(-c3ccc(F)c(C(F)(F)F)c3)csc12` (centres unmarked) [Example 110, 3-(4-fluoro-3-(trifluoromethyl)phenyl)-5-(2-(3-fluoropyrrolidin-1-yl)-2-oxoethyl)-N-hydroxy-4-oxo-4,5-dihydrothieno[3,2-c]pyridine-7-carboximidamide], the “Response Recovered (%)” value is on record as 33%.

`O=C(Cn1cc(CO)c2scc(-c3ccc(F)c(C(F)(F)F)c3)c2c1=O)N1CCC(F)C1` (centres unmarked) [Example 111, 3-(4-fluoro-3-(trifluoromethyl)phenyl)-5-(2-(3-fluoropyrrolidin-1-yl)-2-oxoethyl)-7-(hydroxymethyl)thieno[3,2-c]pyridin-4(5H)-one]: the “Response Recovered (%)” value turned out to be 97%.

For `O=C(Cn1cc(CN2CCCC2)c2scc(-c3ccc(F)c(C(F)(F)F)c3)c2c1=O)N1CCC(F)C1` (centres unmarked) [Example 112, 3-(4-fluoro-3-(trifluoromethyl)phenyl)-5-(2-(3-fluoropyrrolidin-1-yl)-2-oxoethyl)-7-(pyrrolidin-1-ylmethyl)thieno[3,2-c]pyridin-4(5H)-one], the “Response Recovered (%)” value amounted to 89%.

As for `N=C(N)c1cn(CC(=O)N2CCCC2)c(=O)c2c(-c3ccc(F)c(C(F)(F)F)c3)csc12` [Example 113, 3-(4-fluoro-3-(trifluoromethyl)phenyl)-4-oxo-5-(2-oxo-2-(pyrrolidin-1-yl)ethyl)-4,5-dihydrothieno[3,2-c]pyridine-7-carboximidamide], the “Response Recovered (%)” value worked out at 47%.

For `O=C(Cn1cc(N2CCCC2)c2scc(-c3ccc(F)c(C(F)(F)F)c3)c2c1=O)N1CCCC1` [Example 114, 3-(4-fluoro-3-(trifluoromethyl)phenyl)-5-(2-oxo-2-(pyrrolidin-1-yl)ethyl)-7-(pyrrolidin-1-yl)thieno[3,2-c]pyridin-4(5H)-one], the “Response Recovered (%)” value is 15%.

As to `O=C(Cn1cc(N2CCC2)c2scc(-c3ccc(F)c(C(F)(F)F)c3)c2c1=O)N1CCC(F)C1` (centres unmarked) [Example 115, 7-(azetidin-1-yl)-3-[4-fluoro-3-(trifluoromethyl)phenyl]-5-[2-(3-fluoropyrrolidin-1-yl)-2-oxoethyl]-4H,5H-thieno[3,2-c]pyridin-4-one], the “Response Recovered (%)” value came to 8.3%.

Turning to `CN(C)Cc1cn(CC(=O)N2CCC(F)C2)c(=O)c2c(-c3ccc(F)c(C(F)(F)F)c3)csc12` (centres unmarked) [Example 116, 7-((dimethylamino)methyl)-3-(4-fluoro-3-(trifluoromethyl)phenyl)-5-(2-(3-fluoropyrrolidin-1-yl)-2-oxoethyl)thieno[3,2-c]pyridin-4(5H)-one], the “Response Recovered (%)” value came to 70%.

In the case of `CCN(CC)Cc1cn(CC(=O)N2CCC(F)C2)c(=O)c2c(-c3ccc(F)c(C(F)(F)F)c3)csc12` (centres unmarked) [Example 117, 7-((diethylamino)methyl)-3-(4-fluoro-3-(trifluoromethyl)phenyl)-5-(2-(3-fluoropyrrolidin-1-yl)-2-oxoethyl)thieno[3,2-c]pyridin-4(5H)-one 2,2,2-trifluoroacetate], the “Response Recovered (%)” value is on record as 30%.

As for `O=C(Cn1cc(CN2CCC2)c2scc(-c3ccc(F)c(C(F)(F)F)c3)c2c1=O)N1CCC(F)C1` (centres unmarked) [Example 118, 7-(azetidin-1-ylmethyl)-3-(4-fluoro-3-(trifluoromethyl)phenyl)-5-(2-(3-fluoropyrrolidin-1-yl)-2-oxoethyl)thieno[3,2-c]pyridin-4(5H)-one], the “Response Recovered (%)” value is reported as 77%.

As to `O=C(Cn1cc(CN2CCCC2)c2scc(-c3ccc(F)c(Cl)c3)c2c1=O)N1CCC(F)C1` (centres unmarked) [Example 119, 3-(3-chloro-4-fluorophenyl)-5-(2-(3-fluoropyrrolidin-1-yl)-2-oxoethyl)-7-(pyrrolidin-1-ylmethyl)thieno[3,2-c]pyridin-4(5H)-one], the “Response Recovered (%)” value was found to be 75%.

Regarding `CN(C)Cc1cn(CC(=O)N2CCC(F)C2)c(=O)c2c(-c3ccc(F)c(Cl)c3)csc12` (centres unmarked) [Example 120, 3-(3-chloro-4-fluorophenyl)-7-((dimelhylamino)methyl)-5-(2-(3-fluoropyrrolidin-1-yl)-2-oxoethyl)thieno[3,2-c]pyridin-4(5H)-one], the “Response Recovered (%)” value is listed as 61%.

Regarding `O=C(Cn1cc(CN2CCCC2)c2scc(-c3ccc(Cl)c(Cl)c3)c2c1=O)N1CCC(F)C1` (centres unmarked) [Example 121, 3-(3,4-dichlorophenyl)-5-(2-(3-fluoropyrrolidin-1-yl)-2-oxoethyl)-7-(pyrrolidin-1-ylmethyl)thieno[3,2-c]pyridin-4(5H)-one], the “Response Recovered (%)” value worked out at 59%.

With `O=C(Cn1cc(CN2CCC2)c2scc(-c3ccc(Cl)c(Cl)c3)c2c1=O)N1CCC(F)C1` (centres unmarked) [Example 122, 7-(azetidin-1-ylmethyl)-3-(3,4-dichlorophenyl)-5-(2-(3-fluoropyrrolidin-1-yl)-2-oxoethyl)thieno[3,2-c]pyridin-4(5H)-one], the “Response Recovered (%)” value is reported as 27%.
